{"source": "patent US7915050B2", "about": "“Regulatory genes for plant differentiation and growth, and use of the same” (National University Corporation Nagoya University, priority 2005, dated 2011)", "key": {"[1]": {"biological_target": "T1, AtGID1a (Arabidopsis thaliana, UniProt Q9MAA7)", "T1 construct": "made in house; host or cells: E. coli", "T1 sequence (Q9MAA7 1-345)": "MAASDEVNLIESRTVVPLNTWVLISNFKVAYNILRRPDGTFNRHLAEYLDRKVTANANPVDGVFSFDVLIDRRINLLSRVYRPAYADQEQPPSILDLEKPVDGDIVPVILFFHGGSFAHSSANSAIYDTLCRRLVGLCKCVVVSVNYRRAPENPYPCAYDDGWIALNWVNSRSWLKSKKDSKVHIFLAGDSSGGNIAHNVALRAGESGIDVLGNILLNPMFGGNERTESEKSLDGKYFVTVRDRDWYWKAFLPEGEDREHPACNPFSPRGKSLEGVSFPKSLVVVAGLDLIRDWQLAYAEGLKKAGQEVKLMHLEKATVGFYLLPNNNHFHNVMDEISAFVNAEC", "assay": "Scatchard analysis of GA binding of AtGID1a", "conditions": "equilibrium conditions", "procedure": "(§1) Panels A) to C) depict the results of Scatchard plot analyses for the GA binding of AtGID1. Results for AtGID1a (A), AtGID1b (B), and AtGID1c (C) are shown. The Kd values for 16,17-dihydro-GA4 was determined by adding various concentrations of GA to the assay mixture. Standard deviation (SD) was determined from these three independent measurements. The insets show time-course characteristics for the GA binding of AtGID1 and replacement (arrow) using an excess amount of non-labeled GA4 (0.125 mM). Panels D) to F) depict the GA binding activities of AtGID1 under different pH conditions. Results for AtGID1a (D), AtGID1b (E), and AtGID1c (F) are shown. The non-specific binding activity (UB) was determined by adding 0.125 mM GA4 to the assay solution, and this was subtracted from the total binding activity (B) to determine the specific binding activity (B-UB).\n(§2) Specifically, the coding region of the AtGID1 gene was amplified by PCR using specific primers designed based on the full-length cDNA sequence of the AtGID1 gene and having appropriate restriction sites at each end. […]\n(§3) The kinetics, ligand selectivity, and pH dependence of GA binding for the three AtGID1s identified as described above were examined using the tritiated GA4 derivative 16,17-dihydro-GA4. […] Furthermore, the kinetics of GA binding of each AtGID1 was analyzed under equilibrium conditions of GA at various concentrations."}, "[2]": {"biological_target": "T2, AtGID1b (Arabidopsis thaliana, UniProt Q9LYC1)", "T2 construct": "made in house; host or cells: E. coli", "T2 sequence (Q9LYC1 1-358)": "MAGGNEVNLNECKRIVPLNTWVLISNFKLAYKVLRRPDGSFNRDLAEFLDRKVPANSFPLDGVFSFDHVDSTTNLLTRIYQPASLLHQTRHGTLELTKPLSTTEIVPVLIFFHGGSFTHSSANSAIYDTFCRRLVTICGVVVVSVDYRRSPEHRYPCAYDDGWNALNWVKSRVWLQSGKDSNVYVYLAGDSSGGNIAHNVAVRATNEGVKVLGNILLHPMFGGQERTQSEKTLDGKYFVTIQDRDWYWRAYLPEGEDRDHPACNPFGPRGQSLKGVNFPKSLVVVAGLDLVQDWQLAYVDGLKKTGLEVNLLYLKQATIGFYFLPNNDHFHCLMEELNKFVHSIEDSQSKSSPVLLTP", "assay": "Scatchard analysis of GA binding of AtGID1b", "conditions": "equilibrium conditions", "procedure": "as §1, §2, §3"}, "[3]": {"biological_target": "T2, AtGID1b", "assay": "Competitive ability of GA in AtGID1-GA binding (AtGID1b)", "procedure": "In the gibberellin-binding assay, [1,2,16,17-^3H4]16,17-dihydro-GA4 was used as a labeled GA4. In vitro GA-binding assays were carried out using previous methods with some modifications (Nakajima, M. et al., Biochem. Biophys. Res. Comm. 241, 782-786 (1997)). The purified recombinant GID1 protein (400 pmol) was dissolved in 300 μl of binding buffer [20 mM Tris-HCl (pH 7.6), 5 mM 2-mercaptoethanol, and 0.1 M NaCl], and incubated with 100 μl of ^3H4-16,17-dihydroGA4 (6 pmol) for two hours at 25° C., either in the absence of non-labeled GA4 (total binding) or in the presence of 833-fold excess non-labeled GA4 (total non-specific binding). Then, 0.1 ml of the reaction mixture was loaded onto a NAP-5 column (Amersham Biosciences, Piscataway, N.J.). The eluate of the binding buffer (0.6 ml) was discarded, the subsequent eluate (0.2 ml) was collected, and the radioactivity was measured. The specific binding activity, reflecting the number of displaceable GA binding sites, was calculated by subtracting the amount of nonspecific binding from the amount of total binding. The same as above can also be carried out for other GAs.\nSpecifically, the coding region of the AtGID1 gene was amplified by PCR using specific primers designed based on the full-length cDNA sequence of the AtGID1 gene and having appropriate restriction sites at each end. After confirmation by sequence analysis, each cDNA fragment was ligated into pET32a vector (Novagen/Merck Biosciences, Madison, Wis., USA) or pGEX-4T-2 vector (Amersham Biosciences, Piscataway, N.J., USA; currently, a part of GE Healthcare). The production of recombinant proteins was confirmed by SDS-PAGE; vector cassettes were used as negative controls. GA binding assays were carried out similarly as described above using [1,2,16,17-^3H4]-16,17-dihydro-GA4 (4.55 TBq/mmol), which was custom-made by DuPont/NEN (Boston, Mass., USA). Non-labeled GA4 (1.25 mM) was used to measure non-specific binding. Saturation experiments for the kinetic analysis were carried out using ten concentrations of 16,17-dihydro-GA4 within the range of 25 to 1,500 nM. Competition assays were performed using [1,2,16,17-^3H4]-16,17-dihydro-GA4 at 15 nM and five concentrations of the non-labeled competitor. Recombinant RGA and GAI proteins were prepared using pET32a by a previously described method.\nThe ligand selectivity of each AtGID1 was examined by observing the competitive inhibition, by the addition of GA to the assay mixtures, of the binding between the recombinant proteins and tritiated 16,17-dihydro-GA4 (Table 2). The ligand selectivity was evaluated using the concentration of GA that inhibits 50% of the tracer (15 nM) binding (IC50 value)."}}}
{"compound": "CC1C[C@]23C[C@H]1CCC2[C@]12CC[C@H](O)[C@](C)(C(=O)O1)[C@H]2[C@@H]3C(=O)O", "note": "(stereo partly shown) [H2-GA4, 16,17-dihydro-GA4]", "values": [{"measurement": "Kd", "setting": "[1]", "value": 2000, "unit": "nM"}, {"measurement": "Kd", "setting": "[2]", "value": 480, "unit": "nM"}, {"measurement": "relative value, taking the value for GA4 as 100", "setting": "[3]", "value": "(8) %"}, {"measurement": "IC50", "setting": "[3]; tracer 15 nM, mean of at least two measurements", "value": 400, "unit": "nM"}]}
